From patent US11155586B2, “Cystine knot scaffold platform” (Genentech, Inc., priority 2015, dated 2021) come the findings set out here.

Positions of bridges follow the written chain, without caps; N, C: chain ends. Residues, ends and D or L forms follow the SMILES beside them.

The first test addresses T1, hVEGF-A (Homo sapiens, UniProt P15692).
T1 sequence (P15692 207-395): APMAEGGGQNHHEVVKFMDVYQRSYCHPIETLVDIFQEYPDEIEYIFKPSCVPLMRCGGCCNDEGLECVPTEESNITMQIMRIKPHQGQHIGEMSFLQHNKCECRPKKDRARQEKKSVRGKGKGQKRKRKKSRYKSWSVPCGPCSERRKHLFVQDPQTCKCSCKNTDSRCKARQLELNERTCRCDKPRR
Nature of the test: KDR-CHO VEGF assay to determine cellular IC50 (VEGF mediated Tyr phosphorylation of KDR). Type of test: cell-based. Particulars: Table 36, from cellular IC50. On the procedure:
KDR-CHO cells (CHO cells stably transfected with gD tagged-KDR) were grown in cell growth medium (DMEM/Ham's F-12, 10% diafiltered FBS (GIBCO catalog no. 26400), 25 mM HEPES, 2 mM L-GLUTAMAX™). For VEGF stimulation assay, 5×10^4 cells/well were plated in 100 μl of cell plating medium (DMEM/Ham's F-12, 0.2% BSA, 0.25% diafiltered FBS, 25 mM HEPES, 2 mM L-GLUTAMAX™) in 96-well tissue culture plate and incubated at 37° C. overnight. The medium was replaced with 100 I1 of serum-free cell stimulation medium (DMEM/Ham's F-12, 0.5% BSA, 25 mM HEPES) and cells were incubated at 37° C. for 2 hr. One hour before stimulation, the medium was replaced with 50 I1 of serum-free cell stimulation medium. Concurrently, VEGF (50 ng/ml for hVEGF, 100 ng/ml for mVEGF and rVEGF) was pre-incubated with titrated amount of CKP or anti-VEGF in 50 μl of serum-free cell stimulation medium at 37° C. for 1 hour and added to the cells. The cells were stimulated for 15 min at 37 C and the medium is removed. The cells were lysed with 130 I1 of ice-cold cell lysis buffer (150 mM NaCl, 50 mM HEPES, 0.5% Triton-X 100, HALT protease and phosphatase inhibitor cocktail (ThermoFisher Scientific, Inc. catalog no. 78444), 5 mM EDTA). VEGF mediated Tyr phosphorylation of KDR was determined by ELISA-based assay. Briefly, MAXISORP™ 96 well plates (ThermoFisher Scientific, Inc. catalog no. 439454) were coated with 100 I1 of anti-gD antibody diluted in PBS (1 μg/ml) at 4° C. overnight and washed three times with washing buffer (PBS, 0.05% TWEEN®20, pH 7.4). The plates were blocked with 300 I1 of blocking buffer (PBS, 0.5% BSA) at room temperature for 1 hour followed by washing three times with washing buffer. The above KDR-CHO cell lysate (100 μl) was added to each well and incubated at room temperature for 2 hours. The plates were washed four times with washing buffer followed by incubation with 100 I1 of 0.5 μg/ml biotin-conjugated anti-phosphotyrosine (clone 4G10, Millipore catalog no. 16-103) in blocking buffer at room temperature for 2 hours. After washing four times, the plates were incubated with 100 I1 of HRP-conjugated streptavidin in blocking buffer at room temperature for 30 min. After washing four times, the plates were developed with 100 I1 of TMB substrate (BD Biosciences) at room temperature for 20-30 min and stopped by addition of 50 μl of H2SO4 solution. The optical density of each well was determined using a microplate reader set to 450 nm.
As to `CC[C@H](C)[C@H](NC(=O)[C@@H]1CSSC[C@H](NC(=O)CN)C(=O)N[C@@H](CC(N)=O)C(=O)N[C@@H]([C@@H](C)CC)C(=O)N[C@@H](CCSC)C(=O)N[C@@H](CC(C)C)C(=O)N2CCC[C@H]2C(=O)N[C@@H](Cc2ccccc2)C(=O)N[C@@H](Cc2c[nH]c3ccccc23)C(=O)NCC(=O)N[C@H]2CSSC[C@H](NC(=O)[C@H](CCC(=O)O)NC(=O)[C@H](Cc3ccccc3)NC(=O)[C@H](CC(=O)O)NC(=O)[C@H](CCCNC(=N)N)NC(=O)CNC2=O)C(=O)N[C@@H](CCSC)C(=O)N[C@@H](CC(N)=O)C(=O)N[C@@H](CCC(N)=O)C(=O)N1)C(=O)N[C@H]1CSSC[C@@H](C(=O)NCC(=O)O)NC(=O)[C@H](CO)NC(=O)[C@H](CCC(N)=O)NC(=O)[C@H](Cc2ccc(O)cc2)NC(=O)[C@H](Cc2ccc(O)cc2)NC(=O)[C@H](CCC(N)=O)NC1=O` [9.54.90.13] (H-GCNIMLPFWGCGRDFECMNQCICQYYQSCG-OH; disulfide 2-21, 11-17, 23-29; N-terminus and C-terminus assumed), the “FOLD IMPROVEMENT RELATIVE TO VARIANT 9.54.90” value is recorded as 1.41.

Take `CC[C@H](C)[C@H](NC(=O)[C@@H]1CSSC[C@H](NC(=O)CN)C(=O)N[C@@H](CC(N)=O)C(=O)N[C@@H]([C@@H](C)CC)C(=O)N[C@@H](CCSC)C(=O)N[C@@H](CC(C)C)C(=O)N2CCC[C@H]2C(=O)N[C@@H](Cc2ccccc2)C(=O)N[C@@H](Cc2c[nH]c3ccccc23)C(=O)NCC(=O)N[C@H]2CSSC[C@H](NC(=O)[C@H](CCC(=O)O)NC(=O)[C@H](Cc3ccccc3)NC(=O)[C@H](CC(=O)O)NC(=O)[C@H](CCCNC(=N)N)NC(=O)CNC2=O)C(=O)N[C@@H](Cc2ccccc2)C(=O)N[C@@H](Cc2ccc(O)cc2)C(=O)N[C@@H](CCC(=O)O)C(=O)N1)C(=O)N[C@H]1CSSC[C@@H](C(=O)NCC(=O)O)NC(=O)[C@H](CO)NC(=O)[C@H](CCC(N)=O)NC(=O)[C@H](Cc2ccc(O)cc2)NC(=O)[C@H](Cc2ccc(O)cc2)NC(=O)[C@H](CCC(N)=O)NC1=O` [9.54.90.62] (H-GCNIMLPFWGCGRDFECFYECICQYYQSCG-OH; disulfide 2-21, 11-17, 23-29; N-terminus and C-terminus assumed): the “FOLD IMPROVEMENT RELATIVE TO VARIANT 9.54.90” value is 1.47. Still for that read-out and setting: next, `CC[C@H](C)[C@H](NC(=O)[C@@H]1CSSC[C@H](NC(=O)CN)C(=O)N[C@@H](CC(=O)O)C(=O)N[C@@H](C(C)C)C(=O)N[C@@H](CCSC)C(=O)N[C@@H](CCC(N)=O)C(=O)N2CCC[C@H]2C(=O)N[C@@H](Cc2ccc(O)cc2)C(=O)N[C@@H](Cc2c[nH]c3ccccc23)C(=O)NCC(=O)N[C@H]2CSSC[C@H](NC(=O)[C@H](CC(=O)O)NC(=O)[C@H]([C@@H](C)CC)NC(=O)[C@H](CC(=O)O)NC(=O)[C@@H]3CCCN3C(=O)CNC2=O)C(=O)N[C@@H](CC(C)C)C(=O)N[C@@H](CO)C(=O)N[C@@H](CC(N)=O)C(=O)N1)C(=O)N[C@H]1CSSC[C@@H](C(=O)NCC(=O)O)NC(=O)[C@H](CO)NC(=O)[C@H](CC(N)=O)NC(=O)[C@H](Cc2ccc(O)cc2)NC(=O)[C@H](Cc2c[nH]c3ccccc23)NC(=O)[C@H](Cc2c[nH]cn2)NC1=O` [9.63.12.12] (H-GCDVMQPYWGCGPDIDCLSNCICHWYNSCG-OH; disulfide 2-21, 11-17, 23-29; N-terminus and C-terminus assumed): 2.41; `CC[C@H](C)[C@@H]1NC(=O)[C@H](Cc2ccccc2)NC(=O)[C@@H]2CSSC[C@H](NC(=O)CNC(=O)[C@H](Cc3c[nH]c4ccccc34)NC(=O)[C@H](Cc3ccccc3)NC(=O)[C@@H]3CCCN3C(=O)[C@H](CC(C)C)NC(=O)[C@H](CCSC)NC(=O)[C@H]([C@@H](C)CC)NC(=O)[C@H](CC(N)=O)NC(=O)[C@@H](NC(=O)CN)CSSC[C@@H](C(=O)N[C@H](C(=O)N[C@H]3CSSC[C@@H](C(=O)NCC(=O)O)NC(=O)[C@H](CO)NC(=O)[C@H](CCC(N)=O)NC(=O)[C@H](Cc4ccc(O)cc4)NC(=O)[C@H](Cc4ccc(O)cc4)NC(=O)[C@H](CCC(N)=O)NC3=O)[C@@H](C)CC)NC(=O)[C@H](CC(N)=O)NC1=O)C(=O)NCC(=O)N[C@@H](CCCNC(=N)N)C(=O)N[C@@H](CC(=O)O)C(=O)N[C@@H](Cc1ccccc1)C(=O)N[C@@H](CCC(=O)O)C(=O)N2` [9.54.90.44] (H-GCNIMLPFWGCGRDFECFINCICQYYQSCG-OH; disulfide 2-21, 11-17, 23-29; N-terminus and C-terminus assumed): 1.16. Same read-out and setting: under `CC[C@H](C)[C@H](NC(=O)[C@@H]1CSSC[C@H](NC(=O)CN)C(=O)N[C@@H](CC(N)=O)C(=O)N[C@@H]([C@@H](C)CC)C(=O)N[C@@H](CCSC)C(=O)N[C@@H](CC(C)C)C(=O)N2CCC[C@H]2C(=O)N[C@@H](Cc2ccccc2)C(=O)N[C@@H](Cc2c[nH]c3ccccc23)C(=O)NCC(=O)N[C@H]2CSSC[C@H](NC(=O)[C@H](CCC(=O)O)NC(=O)[C@H](Cc3ccccc3)NC(=O)[C@H](CC(=O)O)NC(=O)[C@H](CCCNC(=N)N)NC(=O)CNC2=O)C(=O)N[C@@H](CCSC)C(=O)N[C@@H](CO)C(=O)N[C@@H](CC(=O)O)C(=O)N1)C(=O)N[C@H]1CSSC[C@@H](C(=O)NCC(=O)O)NC(=O)[C@H](CO)NC(=O)[C@H](CCC(N)=O)NC(=O)[C@H](Cc2ccc(O)cc2)NC(=O)[C@H](Cc2ccc(O)cc2)NC(=O)[C@H](CCC(N)=O)NC1=O` [9.54.90.12] (H-GCNIMLPFWGCGRDFECMSDCICQYYQSCG-OH; disulfide 2-21, 11-17, 23-29; N-terminus and C-terminus assumed) stands 1.125.

The same test, now with this note: Table 38, from cellular IC50.
As for `CC[C@H](C)[C@H](NC(=O)[C@@H]1CSSC[C@H](NC(=O)CN)C(=O)N[C@@H](CC(N)=O)C(=O)N[C@@H]([C@@H](C)CC)C(=O)N[C@@H](CCSC)C(=O)N[C@@H](CC(C)C)C(=O)N2CCC[C@H]2C(=O)N[C@@H](Cc2ccccc2)C(=O)N[C@@H](Cc2c[nH]c3ccccc23)C(=O)NCC(=O)N[C@H]2CSSC[C@H](NC(=O)[C@H](CCC(=O)O)NC(=O)[C@H](Cc3ccccc3)NC(=O)[C@H](CC(=O)O)NC(=O)[C@H](CCCNC(=N)N)NC(=O)CNC2=O)C(=O)N[C@@H](CCSC)C(=O)N[C@@H](CC(N)=O)C(=O)N[C@@H](CCC(N)=O)C(=O)N1)C(=O)N[C@H]1CSSC[C@@H](C(=O)NCC(=O)O)NC(=O)[C@H](CO)NC(=O)[C@H](CCC(N)=O)NC(=O)[C@H](Cc2ccc(O)cc2)NC(=O)[C@H](Cc2ccc(O)cc2)NC(=O)[C@H](CCC(N)=O)NC1=O` [9.54.90.13] (H-GCNIMLPFWGCGRDFECMNQCICQYYQSCG-OH; disulfide 2-21, 11-17, 23-29; N-terminus and C-terminus assumed), the “FOLD IMPROVEMENT RELATIVE TO VARIANT 9.54.90” value was found to be 1.41. Still for that read-out and setting: next, `CC[C@H](C)[C@H](NC(=O)[C@@H]1CSSC[C@H](NC(=O)CN)C(=O)N[C@@H](CC(N)=O)C(=O)N[C@@H]([C@@H](C)CC)C(=O)N[C@@H](CCSC)C(=O)N[C@@H](CC(C)C)C(=O)N2CCC[C@H]2C(=O)N[C@@H](Cc2ccccc2)C(=O)N[C@@H](Cc2c[nH]c3ccccc23)C(=O)NCC(=O)N[C@H]2CSSC[C@H](NC(=O)[C@H](CCC(=O)O)NC(=O)[C@H](Cc3ccccc3)NC(=O)[C@H](CC(=O)O)NC(=O)[C@H](CCCNC(=N)N)NC(=O)CNC2=O)C(=O)N[C@@H](Cc2ccccc2)C(=O)N[C@@H](Cc2ccc(O)cc2)C(=O)N[C@@H](CCC(=O)O)C(=O)N1)C(=O)N[C@H]1CSSC[C@@H](C(=O)NCC(=O)O)NC(=O)[C@H](CO)NC(=O)[C@H](CCC(N)=O)NC(=O)[C@H](Cc2ccc(O)cc2)NC(=O)[C@H](Cc2ccc(O)cc2)NC(=O)[C@H](CCC(N)=O)NC1=O` [9.54.90.62] (H-GCNIMLPFWGCGRDFECFYECICQYYQSCG-OH; disulfide 2-21, 11-17, 23-29; N-terminus and C-terminus assumed): 1.47.
